Literature values in US6013628A, “Method for treating conditions of the eye using polypeptides” (Regents of the University of Minnesota, priority 1995, dated 2000).

Tested on: retinal pigmented epithelial cells
Conditions: Avery et al. 1986; cited from earlier work

Arg-Gly-Asp-Ser (RGDS)
Adhesion of retinal pigmented epithelial cells to fibronectin, type I collagen, type II collagen and lens capsule basement membrane: inhibit the adhesion
